Test results from EP4813979A1, “COMPOUND FOR EGFR PROTEIN DEGRADATION AND USE THEREOF” (TYK Medicines, Inc., priority 2023, dated 2025).

Legend:
Assay in all cases: Cell anti-proliferation experiment (CTG)
Format in all cases: cell-based
[1] = system: A549; conditions: Homo sapiens, A549, 72 h, A549 (wild-type EGFR)
Description: (§1) H1975 has an EGFR: T790M/L858R double mutation, PC-9 has an EGFR exon 19 deletion, and HCC827 has an exon 19 deletion mutation. Baf3-19del- T790M -C797S (Baf3-DTC) is a stable Ba/F3 clone expressing exogenous EGFR gene bearing T790M, C797S, and […] triple amino acid mutations, purchased from KYinno. Baf3-L858R-T790M - C797S (Baf3-LTC) is a stable Ba/F3 clone expressing exogenous EGFR gene bearing […], T790M, and C797S triple mutations, purchased from KYinno. A549 is a wild-type EGFR, purchased from Nanjing Kebai Biotechnology. A431 is a wild-type EGFR, purchased from Shanghai Xinyu Biotechnology. CellCounting-Lite2.0, Trypsin EDTA, 37°C CO2 incubator, cell counter, EnVision Serial No. 1050454.
(§2) • A) Digested logarithmic phase cells with Trypsin EDTA, added culture medium to stop the reaction, and mixing well with a pipette to prepare a cell suspension. • B) Used Vi-cell to determine cell concentration, and prepared a suspension of 15,000-25,000 cells per milliliter according to the experimental purpose and cell characteristics. • C) After prepared the cell suspension, mixed it gently and added 100 µL to each well, so that the cell density to be tested is 1500-2500 per well.
(§3) • A) Weighed approximately 2 mg the compound and calculated the required volume of DMSO according to the formula: Compound mass (mg) * Compound purity (%) / Compound molecular weight * 1000. • B) Placed the inoculated cell culture plate into an incubator and incubated for about 24 hours. Then added compounds of varying concentrations. • C) Diluted the 10mM compound stock solution to […] with culture medium, and added the […] compound solution to the second column of the deep well plate in sequence, and added […] culture medium containing 0.5% DMSO to the third to eleventh columns. • D) Gradient dilution: Taked 125 µL solution from the second column and added it to the third column, mix well; then taked 125 µL solution from the third column and added it to the fourth column, repeated this operation until the tenth column. • E) Used a multichannel pipette, aspirated 25 µL the compound from the deep-well plate and added it to a 96-well culture plate. Repeated this process three times for each compound on the 96-well plate. This will ultimately create a concentration gradient of up to 10,000 nM at a 1:4 ratio on the 96-well plate.
(§4) • A) The effects of the compound were observed under an inverted microscope after the 96-well plate was incubated in an incubator for 72 hours. • B) Added 25 µL CTG solution to each well, placed on a shaker for 10 minutes, and read the […] of each well.
(§5) Calculate the % Cell Viability using the following formula: %Cell Viability = 100% × (Lum_Sample−Lum_LC)/(Lum_HC−Lum_LC) [formula] • Lum_HC: Cell readings from the 0.1% DMSO control group • Lum_Sample: Cell readings with added compound • Lum_LC: Blank culture medium reading
(§6) The IC50 value was obtained by curve fitting using GraphPad Prism 8 software.

[2] = system: HCC827; conditions: Homo sapiens, HCC827, 72 h, HCC827 (exon 19 deletion)
Description: as §1, §2, §3, §4, §5, §6

[3] = system: A431; conditions: Homo sapiens, A-431, 72 h, A431 (wild-type EGFR)
Description: as §1, §2, §3, §4, §5, §6

[4] = system: Baf3-19del- T790M -C797S (Baf3-DTC); conditions: 72 h
Description: as §1, §2, §3, §4, §5, §6

[5] = system: H1975; conditions: Homo sapiens, NCI-H1975, 72 h, H1975 (EGFR T790M/L858R)
Description: as §1, §2, §3, §4, §5, §6

[6] = system: Baf3-L858R-T790M - C797S (Baf3-LTC); conditions: 72 h
Description: as §1, §2, §3, §4, §5, §6

[7] = system: PC-9; conditions: Homo sapiens, PC-9, 72 h, PC-9 (EGFR exon 19 deletion)
Description: as §1, §2, §3, §4, §5, §6

IC50 ([1]; class symbol) [µM]	IC50 ([1]; number after the class symbol) [µM]	IC50 ([2]; class symbol) [µM]	IC50 ([2]; number after the class symbol) [µM]	IC50 ([3]; class symbol) [µM]	IC50 ([3]; number after the class symbol) [µM]	IC50 ([4]; class symbol) [µM]	IC50 ([4]; number after the class symbol) [µM]	IC50 ([5]; class symbol) [µM]	IC50 ([5]; number after the class symbol) [µM]	IC50 ([6]; class symbol) [µM]	IC50 ([6]; number after the class symbol) [µM]	IC50 ([7]; class symbol) [µM]	IC50 ([7]; number after the class symbol) [µM]	SMILES
0.1 to 1	0.326	0.1 to 1	0.227	> 1	1.07	< 0.01	0.0056	0.1 to 1	0.164	< 0.01	0.0053	0.1 to 1	0.647	CCc1cc(Nc2ncc(Cl)c(Nc3ccccc3P(C)(C)=O)n2)c(OC)cc1N1CCN(C(=O)CN2CCC(c3ccc4c(N5CCC(=O)NC5=O)nn(C)c4c3)C(F)(F)C2)CC1 (stereo not shown) [TC-215]
> 1		0.1 to 1		> 1		0.01 to 0.1		0.1 to 1		0.01 to 0.1		0.1 to 1		COc1cc(N2CCN(C(=O)CN3CCC(c4cc5c(cc4F)c(N4CCC(=O)NC4=O)nn5C)C(F)(F)C3)CC2)ccc1Nc1ncc(Cl)c(Nc2ccccc2P(C)(C)=O)n1 (stereo not shown) [TC-211]
> 1		0.1 to 1		> 1		0.01 to 0.1		0.01 to 0.1		0.01 to 0.1		> 1		CCc1cc(Nc2ncc(Cl)c(Nc3ccccc3P3(=O)CCCC3)n2)c(OC)cc1N1CC2(CCN(C(=O)CN3CCC(c4cc5c(cc4F)c(N4CCC(=O)NC4=O)nn5C)C(F)(F)C3)CC2)C1 (stereo not shown) [TB-005]
> 1		0.1 to 1		> 1		0.01 to 0.1		0.01 to 0.1		0.01 to 0.1		0.1 to 1		CCc1cc(Nc2ncc(Cl)c(Nc3ccccc3P(C)(C)=O)n2)c(OC)cc1N1CCC(N(C)C(=O)CN2CCC(c3cc4c(cc3F)c(N3CCC(=O)NC3=O)nn4C)C(F)(F)C2)CC1 (stereo not shown) [TC-089]
> 1		0.1 to 1		> 1		< 0.01		0.01 to 0.1		< 0.01		0.1 to 1		COc1cc(N2CCN(C(=O)CN3CCC(c4cc5c(cc4F)c(N4CCC(=O)NC4=O)nn5C)C(F)(F)C3)CC2)c(Cl)cc1Nc1ncc(Br)c(Nc2ccccc2P(C)(C)=O)n1 (stereo not shown) [TC-138]
> 1		0.1 to 1		> 1		0.01 to 0.1		0.1 to 1		0.01 to 0.1		> 1		CCc1cc(Nc2ncc(Cl)c(Nc3ccccc3P(C)(C)=O)n2)c(OCC(F)(F)F)nc1N1CCN(C(=O)CN2CCC(c3cc4c(cc3F)c(N3CCC(=O)NC3=O)nn4C)C(F)(F)C2)CC1 (stereo not shown) [TC-127]
